Calls of active or inactive are those of the source. Cut-off read from the data, not from the text of the source, for most assays here: actives have a measured IC50 and inactives only a lower limit.

The results in this text go back to ChEMBL document CHEMBL1201862, “PubChem BioAssay data set” (2004).

Assay [1] in a line: Fluorescence-based cell-based high throughput dose response assay for inhibitors of the interaction of nucleotide-binding oligomerization domain containing 2 (NOD2) and the receptor-interacting serine-threonine kinase 2 (RIPK2). It is filed as functional, Homo sapiens.
A further assay concerns the target T1, Caspase-3 (Homo sapiens, UniProt P42574).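 Note: Dose-response selectivity test against caspase-3 for candidate inhibitors of sentrin-specific proteases (SENPs).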
T1 sequence (P42574 whole entry): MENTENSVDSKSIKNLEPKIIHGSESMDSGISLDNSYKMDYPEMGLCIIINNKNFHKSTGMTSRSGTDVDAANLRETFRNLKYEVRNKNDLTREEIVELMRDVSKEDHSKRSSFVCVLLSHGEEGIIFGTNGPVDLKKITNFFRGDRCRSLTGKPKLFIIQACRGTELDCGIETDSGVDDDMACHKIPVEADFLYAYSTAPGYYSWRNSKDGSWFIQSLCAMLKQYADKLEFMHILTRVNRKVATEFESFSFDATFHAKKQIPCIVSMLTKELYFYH
It is filed as functional.

Assay [2] addresses T2, Sentrin-specific protease 7 (Homo sapiens, UniProt Q9BQF6).
T2 sequence (Q9BQF6 whole entry): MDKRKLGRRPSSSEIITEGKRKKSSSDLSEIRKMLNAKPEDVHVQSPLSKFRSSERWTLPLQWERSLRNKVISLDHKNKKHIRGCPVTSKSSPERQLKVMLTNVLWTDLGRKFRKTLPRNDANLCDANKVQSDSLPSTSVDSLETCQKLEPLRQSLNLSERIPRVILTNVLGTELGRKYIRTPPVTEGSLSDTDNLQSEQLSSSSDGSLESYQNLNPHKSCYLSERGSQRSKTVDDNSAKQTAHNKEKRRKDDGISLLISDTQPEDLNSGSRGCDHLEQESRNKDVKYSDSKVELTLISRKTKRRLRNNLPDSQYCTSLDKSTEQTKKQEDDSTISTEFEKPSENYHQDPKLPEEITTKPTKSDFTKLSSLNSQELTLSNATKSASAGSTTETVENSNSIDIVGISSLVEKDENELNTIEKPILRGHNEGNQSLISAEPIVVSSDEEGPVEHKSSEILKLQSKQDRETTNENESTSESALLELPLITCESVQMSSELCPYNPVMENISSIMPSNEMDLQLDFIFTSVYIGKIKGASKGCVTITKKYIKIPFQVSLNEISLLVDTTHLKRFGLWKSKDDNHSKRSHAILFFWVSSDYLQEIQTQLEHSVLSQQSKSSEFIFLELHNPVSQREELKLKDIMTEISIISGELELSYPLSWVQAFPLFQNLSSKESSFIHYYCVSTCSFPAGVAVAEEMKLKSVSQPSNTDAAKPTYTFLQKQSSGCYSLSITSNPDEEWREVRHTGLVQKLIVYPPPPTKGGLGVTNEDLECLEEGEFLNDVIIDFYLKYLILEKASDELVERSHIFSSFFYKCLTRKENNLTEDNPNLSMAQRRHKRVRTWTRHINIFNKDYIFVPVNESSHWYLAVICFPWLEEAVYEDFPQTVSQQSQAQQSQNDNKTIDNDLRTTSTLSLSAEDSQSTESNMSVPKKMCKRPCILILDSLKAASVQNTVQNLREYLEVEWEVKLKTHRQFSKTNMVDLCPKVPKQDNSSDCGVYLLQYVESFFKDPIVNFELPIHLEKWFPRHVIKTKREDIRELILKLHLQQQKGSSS
Type of assay: functional.

Assay [3] has as its target T3, Sentrin-specific protease 6 (Homo sapiens, UniProt Q9GZR1).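 Note: Luminescence-based dose-response confirmatory assay of SENP6 inhibition, following up an ultra-high-throughput screen.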
T3 sequence (Q9GZR1 whole entry): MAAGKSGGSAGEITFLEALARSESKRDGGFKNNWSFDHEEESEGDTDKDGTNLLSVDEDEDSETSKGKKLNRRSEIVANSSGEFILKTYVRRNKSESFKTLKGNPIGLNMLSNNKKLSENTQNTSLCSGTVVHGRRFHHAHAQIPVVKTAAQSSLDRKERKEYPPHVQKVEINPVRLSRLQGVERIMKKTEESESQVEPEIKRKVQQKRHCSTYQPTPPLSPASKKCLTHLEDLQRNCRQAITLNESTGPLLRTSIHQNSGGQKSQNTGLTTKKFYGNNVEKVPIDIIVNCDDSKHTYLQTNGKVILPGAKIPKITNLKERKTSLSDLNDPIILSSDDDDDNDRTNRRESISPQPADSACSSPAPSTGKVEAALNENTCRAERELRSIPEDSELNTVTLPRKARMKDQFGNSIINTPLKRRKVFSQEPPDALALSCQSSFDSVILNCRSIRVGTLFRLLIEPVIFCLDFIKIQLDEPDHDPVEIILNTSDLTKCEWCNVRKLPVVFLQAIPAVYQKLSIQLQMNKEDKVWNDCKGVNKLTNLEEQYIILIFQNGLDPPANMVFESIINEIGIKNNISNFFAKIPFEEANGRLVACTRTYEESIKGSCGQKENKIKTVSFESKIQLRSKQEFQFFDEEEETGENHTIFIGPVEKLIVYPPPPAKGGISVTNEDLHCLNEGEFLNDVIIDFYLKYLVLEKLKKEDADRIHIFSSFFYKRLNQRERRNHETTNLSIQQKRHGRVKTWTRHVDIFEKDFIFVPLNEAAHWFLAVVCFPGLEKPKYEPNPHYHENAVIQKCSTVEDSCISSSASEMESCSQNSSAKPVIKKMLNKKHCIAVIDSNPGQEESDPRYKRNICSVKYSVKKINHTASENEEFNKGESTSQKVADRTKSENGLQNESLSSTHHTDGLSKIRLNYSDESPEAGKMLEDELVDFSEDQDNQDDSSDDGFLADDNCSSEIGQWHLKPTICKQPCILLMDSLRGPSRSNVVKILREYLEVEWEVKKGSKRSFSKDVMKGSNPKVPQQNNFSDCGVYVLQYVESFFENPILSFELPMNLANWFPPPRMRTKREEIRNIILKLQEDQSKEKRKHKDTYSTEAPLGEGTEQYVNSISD
It is filed as functional.

Assay [4] concerns the target T4, Sentrin-specific protease 8 (Homo sapiens, UniProt Q96LD8).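 Note: luminescence read-out of SENP8 inhibition, dose-response confirmation following an ultra-high-throughput screen.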
T4 sequence (Q96LD8 whole entry): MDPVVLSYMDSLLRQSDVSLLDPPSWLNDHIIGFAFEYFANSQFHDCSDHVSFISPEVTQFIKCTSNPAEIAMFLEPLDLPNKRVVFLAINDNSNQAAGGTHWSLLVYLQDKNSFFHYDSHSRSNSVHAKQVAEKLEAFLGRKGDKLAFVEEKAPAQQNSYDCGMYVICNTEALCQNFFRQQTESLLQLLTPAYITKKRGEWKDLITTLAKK
Type of assay: functional.

The nature of assay [5]: intracellular Trypanosoma cruzi inhibitors in host cells – cell-based, plate reader, cherry-pick samples, set 3, dose response (AID 651818).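 Note: compounds incubated with infected cells for about four days.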 It is filed as functional.
In assay [6] the target is T5, Microphthalmia-associated transcription factor (Homo sapiens, UniProt O75030).
T5 sequence (O75030 whole entry): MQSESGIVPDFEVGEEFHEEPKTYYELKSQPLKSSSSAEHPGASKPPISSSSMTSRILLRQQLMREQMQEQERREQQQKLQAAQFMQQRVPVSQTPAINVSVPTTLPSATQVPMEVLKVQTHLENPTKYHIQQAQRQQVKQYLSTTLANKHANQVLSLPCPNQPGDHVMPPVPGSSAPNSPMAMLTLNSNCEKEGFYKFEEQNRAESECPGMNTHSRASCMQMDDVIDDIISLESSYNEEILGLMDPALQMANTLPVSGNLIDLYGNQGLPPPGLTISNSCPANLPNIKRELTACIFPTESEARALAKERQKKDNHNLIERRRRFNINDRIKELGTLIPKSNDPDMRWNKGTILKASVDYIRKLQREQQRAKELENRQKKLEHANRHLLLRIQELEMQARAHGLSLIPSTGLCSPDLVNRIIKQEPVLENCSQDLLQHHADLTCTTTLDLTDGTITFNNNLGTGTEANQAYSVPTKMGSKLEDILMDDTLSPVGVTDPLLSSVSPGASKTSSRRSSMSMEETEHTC
As to the kind of experiment: TRPM1 promoter luciferase signal decrease, dose response, MITF inhibitor project, cell-based, SK-MEL-5, cherry-picked, set 3 (AID 493073).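 Note: SK-MEL-5 melanoma cells with luciferase driven by the MITF target TRPM1 promoter.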 It is filed as functional.

One may read the IC50 as the concentration that inhibits the measured activity by half. `CC(=O)OCC12CC(OC(=O)CC(C)C)C(C)=CC1OC1C(O)C(OC(C)=O)C2(C)C12CO2` (centres undefined): the IC50 in assay [1] is 49.8 µM (inactive).

For `Cc1n[nH]c(O)c1N=Nc1ccc(Br)c(Cl)c1`, the IC50 is 2.41 µM (active) on Caspase-3, 2.2 µM (active) in assay [2], 3.79 µM (active) in assay [3] and 2.43 µM (active) in assay [4].

A word on the AC50: it is the midpoint of the concentration-response curve, whichever way the signal moves. Consider `C[C@@H]1CCCCO[C@H](CN(C)C(=O)Nc2ccccc2)[C@@H](C)CN([C@H](C)CO)C(=O)c2cc(NC(=O)Nc3ccc(C(F)(F)F)cc3)ccc2O1`, for which the AC50 in assay [5] was 4.2 µM (active).

In the case of `Cc1ccc(S(=O)(=O)N(C)C[C@H]2Oc3c(NC(=O)c4ccncc4)cccc3C(=O)N([C@H](C)CO)C[C@@H]2C)cc1`, in assay [5], the AC50 is 6.3 µM (active).

Take `C[C@@H]1CN([C@H](C)CO)C(=O)Cc2cc(NC(=O)Cc3ccccc3)ccc2O[C@@H]1CN(C)Cc1ccc(-c2ccccc2)cc1`: the AC50 in assay [5] is 6.35 µM (active).

Consider `C[C@@H]1CN([C@@H](C)CO)C(=O)c2cccc(NS(=O)(=O)c3ccc(Cl)cc3)c2O[C@@H]1CN(C)Cc1ccc(-c2ccccc2)cc1`, for which the concentration at half-maximal activity (AC50) in assay [5] was 2.97 µM (active).

On to `Cc1[nH]n(-c2ccccc2)c(=O)c1N=Nc1cccc(C(=O)O)c1`, for which the IC50 at Caspase-3 is > 100 µM (inactive); in assay [2], 15.2 µM (active); in assay [3], 21.5 µM (active); in assay [4], 35.5 µM (active). Moreover, the AC50 in assay [6] was 8.07 µM (active).
